Values after ≈ are worked out from the molar mass of the structure shown.
Tests used:
Staphylococcus aureus [1] = experiment: Antibacterial activity against Staphylococcus aureus ATCC 25923 incubated for 24 hrs by CLSI based broth microdilution assay; format: functional
Staphylococcus aureus [2] = experiment: Antibacterial activity against Staphylococcus aureus USA 300 incubated for 24 hrs by CLSI based broth microdilution assay; format: functional
Staphylococcus aureus [3] = experiment: Antibacterial activity against TMP-resistant Staphylococcus aureus BHKS 227 incubated for 24 hrs by CLSI based broth microdilution assay; format: functional
Staphylococcus aureus [4] = experiment: Antibacterial activity against TMP-resistant Staphylococcus aureus BHKS 721 incubated for 24 hrs by CLSI based broth microdilution assay; format: functional
Staphylococcus aureus [5] = experiment: Antibacterial activity against TMP-resistant Staphylococcus aureus BHKS 723 incubated for 24 hrs by CLSI based broth microdilution assay; format: functional
[6] = Cytotoxicity against HEK293 cells assessed as inhibition rate of cell growth at 100 uM incubated for 24 hrs by CCK8 assay relative to control; format: toxicity, cell-based; conditions: human
[7] = Cytotoxicity against human NCM460 cells assessed as inhibition rate of cell growth at 100 uM incubated for 24 hrs by CCK8 assay relative to control; format: toxicity, cell-based
[8] = tested on: Dihydrofolate reductase (Staphylococcus aureus); conditions: dose 100.0 nM

SMILES	MIC (Staphylococcus aureus [1])	MIC (Staphylococcus aureus [2])	MIC (Staphylococcus aureus [3])	MIC (Staphylococcus aureus [4])	MIC (Staphylococcus aureus [5])	inhibition at 24 h, 100 µM [6]	inhibition at 24 h, 100 µM [7]	inhibition [8]
COc1cc(C(C)C)c(Oc2cnc(N)nc2N)cc1-c1ccncc1	1 µg/mL (≈ 2.85 µM)	1 µg/mL (≈ 2.85 µM)	4 µg/mL (≈ 11.4 µM)	> 32 µg/mL	32 µg/mL (≈ 91.1 µM)	2.09%	6.02%	37.2%
COc1cc(C(C)C)c(Oc2cnc(N)nc2N)cc1-c1cc(C)cc(C)c1	0.5 µg/mL (≈ 1.32 µM)	0.5 µg/mL (≈ 1.32 µM)	2 µg/mL (≈ 5.28 µM)	8 µg/mL (≈ 21.1 µM)	16 µg/mL (≈ 42.3 µM)	29.7%	68.8%	64.6%
CCCCCCOc1cc(C(C)C)c(Oc2cnc(N)nc2N)cc1I	1 µg/mL (≈ 2.13 µM)	1 µg/mL (≈ 2.13 µM)	8 µg/mL (≈ 17 µM)	8 µg/mL (≈ 17 µM)	4 µg/mL (≈ 8.5 µM)	41.5%	66%	42.9%
COc1ccc(-c2cc(Oc3cnc(N)nc3N)c(C(C)C)cc2OC)cc1	0.25 µg/mL (≈ 0.657 µM)	0.125 µg/mL (≈ 0.329 µM)	1 µg/mL (≈ 2.63 µM)	16 µg/mL (≈ 42.1 µM)	16 µg/mL (≈ 42.1 µM)	19.9%	69.5%	19.9%
CCCC(C)Oc1cc(C(C)C)c(Oc2cnc(N)nc2N)cc1I (configuration not stated)	0.063 µg/mL (≈ 0.138 µM)	0.063 µg/mL (≈ 0.138 µM)	2 µg/mL (≈ 4.38 µM)	4 µg/mL (≈ 8.77 µM)	4 µg/mL (≈ 8.77 µM)	55.6%	11.5%	31.7%
CC(C)c1ccc(-c2cc(Oc3cnc(N)nc3N)c(C(C)C)cc2OCC2CC2)cc1	1 µg/mL (≈ 2.31 µM)	1 µg/mL (≈ 2.31 µM)	4 µg/mL (≈ 9.25 µM)	2 µg/mL (≈ 4.62 µM)	4 µg/mL (≈ 9.25 µM)	19.3%	30.2%	75.4%
COc1cc(C(C)C)c(Oc2cnc(N)nc2N)cc1-c1ccc2c(c1)OCCO2	0.5 µg/mL (≈ 1.22 µM)	0.25 µg/mL (≈ 0.612 µM)	4 µg/mL (≈ 9.79 µM)	16 µg/mL (≈ 39.2 µM)	16 µg/mL (≈ 39.2 µM)	19.6%	64.7%	27.2%
CC(C)CCOc1cc(C(C)C)c(Oc2cnc(N)nc2N)cc1I	0.125 µg/mL (≈ 0.274 µM)	0.125 µg/mL (≈ 0.274 µM)	2 µg/mL (≈ 4.38 µM)	8 µg/mL (≈ 17.5 µM)	8 µg/mL (≈ 17.5 µM)	64%	35.6%	79.6%
COc1cc(Cc2cnc(N)nc2N)cc(OC)c1OC [TRIMETHOPRIM]	0.5 µg/mL (≈ 1.72 µM)	0.5 µg/mL (≈ 1.72 µM)	32 µg/mL (≈ 110 µM)	16 µg/mL (≈ 55.1 µM)	16 µg/mL (≈ 55.1 µM)	2.93%	8.06%	
CCCCOc1cc(C(C)C)c(Oc2cnc(N)nc2N)cc1-c1cc(Cl)cc(Cl)c1	2 µg/mL (≈ 4.33 µM)	1 µg/mL (≈ 2.17 µM)	8 µg/mL (≈ 17.3 µM)	8 µg/mL (≈ 17.3 µM)	8 µg/mL (≈ 17.3 µM)	43%	42.5%	75%
CC(C)c1cc(OCC2CCCCC2)c(I)cc1Oc1cnc(N)nc1N	0.5 µg/mL (≈ 1.04 µM)	0.5 µg/mL (≈ 1.04 µM)	> 32 µg/mL	32 µg/mL (≈ 66.3 µM)	> 32 µg/mL	36.7%	65%	59.8%
COc1cc(C(C)C)c(Oc2cnc(N)nc2N)cc1-c1cccc(Cl)c1	0.063 µg/mL (≈ 0.164 µM)	0.063 µg/mL (≈ 0.164 µM)	1 µg/mL (≈ 2.6 µM)	4 µg/mL (≈ 10.4 µM)	4 µg/mL (≈ 10.4 µM)	29.3%	18.8%	67.2%
COc1cccc(OC)c1C(=O)N[C@@H]1C(=O)N2[C@@H]1SC(C)(C)[C@@H]2C(=O)O [METHICILLIN]	1 µg/mL (≈ 2.63 µM)	128 µg/mL (≈ 336 µM)	64 µg/mL (≈ 168 µM)	1 µg/mL (≈ 2.63 µM)	1 µg/mL (≈ 2.63 µM)			
COc1cc(C(C)C)c(Oc2cnc(N)nc2N)cc1-c1ccccc1	0.5 µg/mL (≈ 1.43 µM)	0.25 µg/mL (≈ 0.713 µM)	2 µg/mL (≈ 5.71 µM)	32 µg/mL (≈ 91.3 µM)	32 µg/mL (≈ 91.3 µM)	49.2%	74.2%	

Reference: ChEMBL document CHEMBL5528082 (J Med Chem, 2024)
